The values that follow come from US20240400582A1, “FOUR-MEMBERED FUSED RING COMPOUND AND PREPARATION METHOD AND USE THEREOF” (JIANGSU HANSOH PHARMACEUTICAL GROUP CO., LTD., priority 2021, published 2024).

The test system of assay [1] is human chronic myeloid leukemia cell line KCL22-s xenograft tumor. Nature of the assay: Anti-tumor efficacy in KCL22-s subcutaneous xenograft tumor model. The class given is in vivo, BALB/c nude mouse. The following applies: oral, dosing cycle 15 days. As to the method: To evaluate the efficacy of the test compound on the human chronic myeloid leukemia cell strain KCL22-s in the BALB/c nude mouse subcutaneous xenograft tumor model.
BALB/c nude mice, 8-10 weeks.
The resuscitated cells were placed in a cell culture flask (the cell type, date, name of the person for culture and so on were marked on the flask wall) and then placed in a CO2 incubator (the incubator temperature was 37° C. and the CO2 concentration was 5%) for incubation. • b, The cells were passaged. After passage, the cells continued to be cultured in the CO2 incubator. This process was repeated until the cell number met the in vivo drug efficacy requirements. • c, The cultured cells were collected and counted with a fully automatic cell counter.
• a, According to the tumor growth, the tumor was measured on the 15th day after inoculation and the tumor size was calculated.

Assay [2] deals with ABL1 WT kinase (Homo sapiens (Human), UniProt P00519). The assay is described as follows: In vitro enzymatic inhibitory activity against ABL1 WT kinase (capillary electrophoresis, EZ reader). The assay is classed as biochemical. The following applies: maximum concentration 1 μM. How it is done:
Capillary electrophoresis was used to detect the phosphorylation conversion rate of the substrate peptide to determine the IC50 value of the test compound for inhibiting the kinase (ABL1-WT). The maximum concentration of the compound tested in the test was 1000 nM, with 3-fold dilution, and a total of 12 concentrations (1000-0.0056 nM). First, an enzyme reaction system (the concentration of enzyme ABL1-WT was 1.3 nM, the concentration of substrate FLPeptide2 was 1.5 μM, and the reaction factor was 10 mM MgCl2) was prepared. After incubation at room temperature for 30 min, […] of 4×ATP solution was added to start the enzyme reaction. After reacting at room temperature for 90 min, the reaction was stopped by adding a stop buffer (containing 0.5 M EDTA). The sample was analyzed using an EZ reader (analysis conditions: pressure −1.5 PSI, upper voltage current −2250V, lower voltage current −500V, separation time 40 sec, and system delay 100.0 sec).
From the conversion rate read by EZ Reader, the remaining activity was calculated according to the following formula.
IC50 was calculated using XLfit, and IC50 was calculated by Formula 201 as the fitting formula.

For assay [3], the system named is Ba/F3 BCR-ABL1-T315I. Nature of the assay: Inhibition of proliferation of Ba/F3 BCR-ABL1-T315I cells (CellTiter-Glo). The class given is cell-based. The following applies: Mus musculus, BaF3, 72 h. The source says:
(§1) To evaluate the inhibitory activity of the compound of the present invention against proliferation of the Ba/F3 BCR-ABL1-T315I, Ba/F3 BCR-ABL1-E255K, Ba/F3 BCR-ABL1-E255V, and Ba/F3 BCR-ABL1-G250E mutation models of mouse primary B cells cultured in vitro.
(§2) CellTiter-Glo® Luminescent Cell Viability Assay was used to detect the inhibitory effect of drugs on tumor cell proliferation and growth. The logarithmic growth phase cells cultured overnight were directly taken, blown, mixed and counted, the cell density was adjusted according to different cell density requirements, and the cells were prepared into a cell suspension and plated on a 96-well plate. Drugs at different concentrations were added, 3 replicate wells were set for each concentration, and corresponding vehicle controls were eset. […] The maximum concentration of the compounds detected in other cells was 500 nM, with 3.16-fold gradient dilution, and a total of 9 concentrations (500-0.0503 nM). […] The culture plate and its contents were equilibrated to room temperature, the CellTiter-Glo® reagent was added, the contents were mixed on a shaker for 5 min to induce cell lysis, the culture plate was further incubated at room temperature in the dark for 20 min, and the luminescence was read with a microplate reader.
Background: Cellular ATP, detected with luciferase, serves as a proxy for viable cell number.

Assay [4] concerns Ba/F3 BCR-ABL1-E255V. The assay is described as follows: Inhibition of proliferation of Ba/F3 BCR-ABL1-E255V cells (CellTiter-Glo). The class given is cell-based. To be noted: Mus musculus, BaF3, 72 h.
Text: as §1, §2

Assay [5] relates to Ba/F3 BCR-ABL1-E255K. Nature of the assay: Inhibition of proliferation of Ba/F3 BCR-ABL1-E255K cells (CellTiter-Glo). The class given is cell-based. The following applies: Mus musculus, BaF3, 72 h.
Text: as §1, §2

Assay [6] deals with Ba/F3 BCR-ABL1-G250E. Nature of the assay: Inhibition of proliferation of Ba/F3 BCR-ABL1-G250E cells (CellTiter-Glo). The class given is cell-based. The following applies: Mus musculus, BaF3, 72 h.
Text: as §1, §2

For assay [7], the system named is K562. The assay is described as follows: Inhibition of proliferation of K562 cells (CellTiter-Glo). To be noted: Homo sapiens, 72 h. The class given is cell-based. From the text: (§3) To evaluate the inhibitory activity of the compounds of the present invention against proliferation of human erythroleukemia cells K562, human peripheral blood basophilic leukemia cells Ku812, and human chronic myelogenous leukemia cells KCL22-s and KCL22-r cultured in vitro.
(§4) CellTiter-Glo® Luminescent Cell Viability Assay was used to detect the inhibitory effect of drugs on tumor cell proliferation and growth. The logarithmic growth phase cells cultured overnight were directly taken, blown, mixed and counted, the cell density was adjusted according to different cell density requirements, and the cells were prepared into a cell suspension and plated on a 96-well plate. Drugs at different concentrations were added, three replicate wells were set for each concentration, and corresponding solvent controls were set. The maximum concentration of compound detected was 500 nM, with 3-fold gradient dilution, and a total of 9 concentrations (500-0.076 nM). […] The culture plate and its contents were equilibrated to room temperature, the CellTiter-Glo® reagent was added, the contents were mixed on a shaker for 3 min to induce cell lysis, the culture plate was further incubated at room temperature in the dark for 10 min, and the chemiluminescence signal value was determined by a microplate reader (BioTek SynergyH1).

Assay [8] has as its system Ku812. The assay is described as follows: Inhibition of proliferation of Ku812 cells (CellTiter-Glo). The assay is classed as cell-based. The following applies: Homo sapiens, 72 h.
Text: as §3, §4

The subject of assay [9] is KCL22-s. The assay is described as follows: Inhibition of proliferation of KCL22-s cells (CellTiter-Glo). The assay is classed as cell-based. The following applies: Homo sapiens, 72 h, imatinib-sensitive strain.
Text: as §3, §4

Assay [10] has as its system KCL22-r. The assay is described as follows: Inhibition of proliferation of KCL22-r cells (CellTiter-Glo). The class given is cell-based. To be noted: Homo sapiens, 72 h, imatinib-resistant strain.
Text: as §3, §4

ABL1 WT kinase, sequence (P00519 whole entry): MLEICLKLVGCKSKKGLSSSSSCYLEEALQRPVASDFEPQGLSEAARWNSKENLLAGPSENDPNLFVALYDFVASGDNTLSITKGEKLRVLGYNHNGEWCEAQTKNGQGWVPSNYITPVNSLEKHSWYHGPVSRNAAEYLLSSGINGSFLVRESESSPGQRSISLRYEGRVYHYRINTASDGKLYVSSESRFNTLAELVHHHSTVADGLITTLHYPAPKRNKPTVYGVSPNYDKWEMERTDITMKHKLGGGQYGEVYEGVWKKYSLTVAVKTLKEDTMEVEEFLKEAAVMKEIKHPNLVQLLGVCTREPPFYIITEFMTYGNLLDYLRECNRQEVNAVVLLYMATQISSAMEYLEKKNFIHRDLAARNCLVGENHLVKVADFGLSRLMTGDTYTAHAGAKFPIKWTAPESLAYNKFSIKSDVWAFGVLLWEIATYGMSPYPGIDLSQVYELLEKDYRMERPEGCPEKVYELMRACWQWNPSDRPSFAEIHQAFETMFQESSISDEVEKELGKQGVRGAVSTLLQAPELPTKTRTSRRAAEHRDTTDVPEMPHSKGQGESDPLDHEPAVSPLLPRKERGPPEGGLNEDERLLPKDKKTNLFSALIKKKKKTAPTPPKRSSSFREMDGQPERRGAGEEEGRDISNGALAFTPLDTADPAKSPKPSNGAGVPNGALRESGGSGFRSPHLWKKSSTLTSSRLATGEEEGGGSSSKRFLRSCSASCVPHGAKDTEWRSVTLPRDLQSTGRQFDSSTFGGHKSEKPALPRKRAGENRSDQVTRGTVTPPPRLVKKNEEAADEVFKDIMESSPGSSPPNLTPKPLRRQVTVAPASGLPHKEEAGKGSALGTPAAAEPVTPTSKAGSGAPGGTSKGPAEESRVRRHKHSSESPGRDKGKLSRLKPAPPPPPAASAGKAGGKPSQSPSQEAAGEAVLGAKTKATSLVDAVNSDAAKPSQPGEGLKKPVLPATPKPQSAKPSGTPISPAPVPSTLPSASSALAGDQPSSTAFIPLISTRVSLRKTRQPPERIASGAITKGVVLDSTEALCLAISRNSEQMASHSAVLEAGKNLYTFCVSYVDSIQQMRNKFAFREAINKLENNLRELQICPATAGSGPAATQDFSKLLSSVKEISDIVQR

By T/C is commonly meant the ratio of treated to control. Consider `Cc1ccc(NC(=O)c2ccc(CN3CCN(C)CC3)cc2)cc1Nc1nccc(-c2cccnc2)n1` [Imatinib, reference compound], for which, in [1] (75 mg/kg qd), the T/C is given as 46.92% and the TGI was 56.03%.

The IC50 is the midpoint of a concentration-inhibition curve. For the compound `C[C@@H]1COC2NC=NC=C2c2cc(C(=O)Nc3ccc(OC(F)(F)Cl)cc3)cc3nc(C(F)F)n1c23.Cc1ccc(S(=O)(=O)O)cc1` (stereo partly drawn) [Example 1, (3R)-N-(4-(chlorodifluoromethoxy)phenyl)-2-(difluoromethyl)-3-methyl-3,4,5a,6-tetrahydro-5-oxa-1,2a,6,8-tetraazabenzo[4,5]cyclooctyl[1,2,3-cd]indene-11-carboxamide p-toluenesulfonate Salt], the concentration for half-maximal inhibition (IC50) in [2] came to 0.43 nM; in assay [3] it was 46.8 nM; in assay [4], 7.15 nM; in [5] it was 26.3 nM; in assay [6], 5.36 nM; in assay [7], 13 nM. The IC50 came out at 4.13 nM in assay [8], 2.99 nM in assay [9] and 14.6 nM in assay [10]. For the same compound, the T/C is 7.05% in assay [1] (1.5 mg/kg bid), 0.69% in assay [1] (3 mg/kg bid), 3.98% in assay [1] (3 mg/kg qd) and 0.52% in assay [1] (7.5 mg/kg bid). The TGI in [1] (1.5 mg/kg bid) was 98.20%; in assay [1] (3 mg/kg bid) it was 187.08%; in [1] (3 mg/kg qd) it was 127.26%; in assay [1] (7.5 mg/kg bid) it was 190.62%. For the same compound, the Tumor volume in assay [1] (1.5 mg/kg bid) was 143 ± 35 mm^3; in assay [1] (3 mg/kg bid) it was 14 ± 5 mm^3; in assay [1] (3 mg/kg qd), 81 ± 19 mm^3; in assay [1] (7.5 mg/kg bid), 11 ± 7 mm^3.
